Experimental data published in patent US4743587A, “Hydroxamic acid based collagenase inhibitors” (G. D. Searle & Co., priority 1986, dated 1988).

These molecules were tested against T1, Human Rheumatoid Synovial Collagenase (Homo sapiens, UniProt P03956) (assay: Collagenase inhibition (acetyl 14C collagen hydrolysis, procedure of Cawston and Barrett)). Settings: incubated at 37° C. for 16 hours with native acetyl 14C collagen and collagenase, Tris HCl-CaCl2, pH 7.6.
T1 construct: from tissue
T1 sequence (P03956 100-469): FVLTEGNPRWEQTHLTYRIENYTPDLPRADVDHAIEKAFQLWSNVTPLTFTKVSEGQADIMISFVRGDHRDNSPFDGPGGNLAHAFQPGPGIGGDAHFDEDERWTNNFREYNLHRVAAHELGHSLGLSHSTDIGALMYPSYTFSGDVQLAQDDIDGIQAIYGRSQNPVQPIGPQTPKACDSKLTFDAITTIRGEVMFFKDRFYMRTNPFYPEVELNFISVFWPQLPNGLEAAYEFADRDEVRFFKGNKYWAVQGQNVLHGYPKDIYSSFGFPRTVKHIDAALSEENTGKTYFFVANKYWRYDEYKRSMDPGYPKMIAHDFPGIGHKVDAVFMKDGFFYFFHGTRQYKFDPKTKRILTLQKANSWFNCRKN
Format: biochemical
Procedure: This was determined following the procedure of Cawston and Barrett, (Anal. […] The collagen is acetyl ^14 C collagen. The samples are centrifuged to sediment undigested collagen and an aliquot of the radioactive supernatant removed for assay on a scintillation counter as a measure of hydrolysis.

Row | Compound | IC50 [µM]
1 | CNC(=O)[C@H](Cc1ccc(OC)cc1)NC(=O)C(CC(C)C)C(C)C(=O)NO (single isomer, unassigned) [3(A), N-[3-(N'-Hydroxycarboxamido)-2-(2-methylpropyl)butanoyl]-O-methyl-L-tyrosine N-Methylamide] | 0.4
2 | CNC(=O)[C@H](Cc1ccc(OC)cc1)NC(=O)C(CC(C)C)C(C)C(=O)NO (single isomer, unassigned) [3(B), N-[3-(N'-Hydroxycarboxamido)-2-(2-methylpropyl)butanoyl]-O-methyl-L-tyrosine N-Methylamide] | 20
3 | CNC(=O)[C@H](Cc1ccc(OC)cc1)NC(=O)C(CC(C)C)C(C)C(=O)NO (single isomer, unassigned) [3(C), N-[3-(N'-Hydroxycarboxamido)-2-(2-methylpropyl)butanoyl]-O-methyl-L-tyrosine N-Methylamide] | 0.02
4 | CNC(=O)[C@H](Cc1ccc(OC)cc1)NC(=O)C(CC(C)C)C(C)C(=O)NO (single isomer, unassigned) [3(D), N-[3-(N'-Hydroxycarboxamido)-2-(2-methylpropyl)butanoyl]-O-methyl-L-tyrosine N-Methylamide] | 0.3
5 | CNC(=O)[C@H](Cc1ccc(OC)cc1)NC(=O)C(CC(C)C)C(C(=O)NO)c1ccccc1 (single isomer, unassigned) [4(A), N-[3-(N'-Hydroxycarboxamido)-2-(2-methylpropyl)-3-phenylpropanoyl]-O-methyl-L-tyrosine N-Methylamide] | 0.6
6 | CNC(=O)[C@H](Cc1ccc(OC)cc1)NC(=O)C(CC(C)C)C(C(=O)NO)c1ccccc1 (single isomer, unassigned) [4(B), N-[3-(N'-Hydroxycarboxamido)-2-(2-methylpropyl)-3-phenylpropanoyl]-O-methyl-L-tyrosine N-Methylamide] | 1
7 | CNC(=O)[C@H](C)NC(=O)C(CC(=O)NO)CC(C)C (single isomer, unassigned) [8(A), N-[3-(N'-Hydroxycarboxamido)-2-(2-methylpropyl)propanoyl]-L-alanine N-Methylamide] | 0.15
8 | CNC(=O)[C@H](Cc1ccc(O)cc1)NC(=O)C(CC(=O)NO)CC(C)C (single isomer, unassigned) [9(A), N-[3-(N'-Hydroxycarboxamido)-2-(2-methylpropyl)propanoyl]-L-tyrosine N-Methylamide] | 0.037
9 | CNC(=O)[C@H](Cc1ccc(O)cc1)NC(=O)C(CC(=O)NO)CC(C)C (single isomer, unassigned) [9(B), N-[3-(N'-Hydroxycarboxamido)-2-(2-methylpropyl)propanoyl]-L-tyrosine N-Methylamide] | 0.52
10 | CCCCC(CC(=O)NO)C(=O)N[C@@H](Cc1ccc(OC)cc1)C(=O)NC (single isomer, unassigned) [12(B)] | 1
11 | CNC(=O)[C@H](Cc1ccc(OC)cc1)NC(=O)C(CC(=O)NO)Cc1ccccc1 (single isomer, unassigned) [13(A), N-[3-(N'-Hydroxycarboxamido)-2-benzylpropanoyl]-O-methyl-L-tyrosine N-Methylamide] | 5
12 | CNC(=O)[C@H](Cc1ccc(OC)cc1)NC(=O)C(CC(=O)NO)Cc1ccccc1 (single isomer, unassigned) [13(B), N-[3-(N'-Hydroxycarboxamido)-2-benzylpropanoyl]-O-methyl-L-tyrosine N-Methylamide] | > 100
13 | CCCCC(C(=O)NO)C(CC(C)C)C(=O)N[C@@H](Cc1ccc(OC)cc1)C(=O)NC (single isomer, unassigned) [18(A), N-[3-(N'-Hydroxycarboxamido)-2-(2-methylpropyl)heptanoy]-O-methyl-L-tyrosine N-Methylamide] | 0.2
14 | CCCCC(C(=O)NO)C(CC(C)C)C(=O)N[C@@H](Cc1ccc(OC)cc1)C(=O)NC (single isomer, unassigned) [18(B), N-[3-(N'-Hydroxycarboxamido)-2-(2-methylpropyl)heptanoy]-O-methyl-L-tyrosine N-Methylamide] | > 100
15 | CNC(=O)[C@H](C)NC(=O)C(CC(C)C)C(C)C(=O)NO (single isomer, unassigned) [19(A), N-[3-(N'-Hydroxycarboxamido)-2-(2-methylpropyl)butanoyl]-L-alanine N-Methylamide] | 100
16 | CNC(=O)[C@H](C)NC(=O)C(CC(C)C)C(C)C(=O)NO (single isomer, unassigned) [19(B), N-[3-(N'-Hydroxycarboxamido)-2-(2-methylpropyl)butanoyl]-L-alanine N-Methylamide] | 0.3
17 | CCCCC(CC(=O)NO)C(=O)N[C@@H](Cc1ccc(OC)cc1)C(=O)NC (stereo partly drawn) [12(A)] | 0.03
18 | CNC(=O)[C@H](Cc1ccc(OC)cc1)NC(=O)C(C)CC(=O)NO (stereo partly drawn) [Example 5, N-[3-(N'-Hydroxycarboxamido)-2-methylpropanoyl]-O-methyl-L-tyrosine N-Methylamide] | 100 to 1000
19 | CNC(=O)[C@H](Cc1ccc(OC)cc1)NC(=O)CCC(=O)NO [Example 6, N-[3-(N'-Hydroxycarboxamido)propanoyl]-O-methyl-L-tyrosine N-Methylamide] | > 1000
20 | CNC(=O)[C@H](Cc1ccc(OC)cc1)NC(=O)C(=CC(=O)NO)CC(C)C [Example 7, N-[3-(N'-Hydroxycarboxamido)-2-(2-methylpropyl)propenoyl]-O-methyl-L-tyrosine N-Methylamide] | 0.7
21 | CNC(=O)[C@H](Cc1ccc(OC)cc1)NC(=O)C(CC(C)C)=C(C)C(=O)NO [Example 20, N-[3-(N'-Hydroxycarboxamido)-2-(2-methylpropyl)-Δ^2,3-butenoyl]-O-methyl-L-tyrosine N Methylamide] | 1
